{"source": "patent US9422306B2", "about": "“Artemisinin compounds and synthesis and use thereof” (University of Washington Through Its Center for …, priority 2012, dated 2016)", "key": {"MCF-10A": {"tested_on": "MCF-10A", "test": "MCF-10A IC50", "type": "cell-based"}, "NCI 60 cell lines": {"tested_on": "NCI 60 cell lines", "conditions": "panel of NCI 60 cell lines; cited from earlier work"}, "MDA-MB-231 cells": {"tested_on": "MDA-MB-231 cells", "test": "MTT cell viability assay, MDA-MB-231 breast cancer cells", "type": "cell-based", "conditions": "for IC50: read-out: MDA MB 231 IC50; for Selectivity MDA MB 231: values match MCF-10A IC50 / MDA MB 231 IC50, formula not given", "procedure": "(§1) In vitro toxicity of the compounds described herein were tested on two breast cancer cell lines, MDA-MB-231 and BT-474. These cell lines represent triple negative and HER2-positive breast cancers, respectively. BT474 cell and MDA-MB-231 cells were maintained in DMEM media supplemented with 10% v/v FBS. On reaching confluency (1×10^6 cells/mL in a 25 mL flask), 1×10^6 cells were seeded in 25 mL of fresh supplemented media. The cells were incubated under humidified air containing 5% CO2 at 37° C. Cell density was kept below 1×10^6 cells/mL to ensure exponential growth and to avoid differentiation. Cells were only used between passages 5 and 15 to prevent cell differentiation.\n(§2) A standard MTT assay was used to determine the cell viability at 48 hr after an artemisinin derivative was added to the culture medium. Cell viability was above 95% for all experiments. The viable cell count was based on trypan blue exclusion from the cells and was performed in a hemocytometer using a light microscope. To 50 μL of cells was added 20 μL of trypan blue 0.4% solution and 30 μL D-Hanks solution was counted. During experiments cells were exposed to drug stock solutions which were made up in 100% DMSO and the final solvent concentration was 1% v/v in each incubation. Each concentration in every experiment was carried out in triplicate.\n(§3) BT474 (2000 cells/100 μL) or MDA-MB-231 cells (7500 cells/100 μL) were seeded on a 96 well plate respectively, and incubated for 24 hr at 37° C. The medium was removed, and replaced it with 200 μL of the complete medium containing artemisinin derivatives. The cells were incubated for 48 hr at 37° C., the medium was removed, and replaced it with 100 μL of fresh complete medium. 10 μL of […] MTT stock solution (D-Hanks) was added to each well. After incubating for 3 hr at 37° C., formazan crystals were solubilized in 50 μL of DMSO and absorbance was measured at 570 nm with BIO-RAD model 680 microplate reader. All data were analyzed using Microsoft Excel. IC50 values were determined with Graphpad Prism 5."}, "BT474 cells": {"tested_on": "BT474 cells", "test": "MTT cell viability assay, BT474 breast cancer cells", "type": "cell-based", "conditions": "for IC50: read-out: BT474 IC50; for Selectivity BT474: values match MCF-10A IC50 / BT474 IC50, formula not given", "procedure": "as §1, §2, §3"}, "[1]": {"tested_on": "PCa cell lines DU 145, PC-3, C4-2, and LNCaP", "test": "Cytotoxicity against a panel of four PCa cell lines", "type": "cell-based", "conditions": "DU 145, PC-3, C4-2, LNCaP", "procedure": "The cytotoxicity of artemisinin dimers, dimer-2Py, was evaluated against a panel of four PCa cell lines, DU 145, PC-3, C4-2, and LNCaP."}, "[2]": {"conditions": "Homo sapiens, MDA-MB-231, MTT, 48 hr incubation"}, "[3]": {"conditions": "Homo sapiens, BT-474, MTT, 48 hr incubation"}}, "note": "Where two headings read alike, the source gives them in different places."}
{"compound": "C[C@H]1[C@@H](CC(COC(=O)CCC(=O)O)C[C@H]2O[C@@H]3O[C@@]4(C)CC[C@H]5[C@H](C)CC[C@@H]([C@H]2C)[C@@]35OO4)O[C@@H]2O[C@@]3(C)CC[C@H]4[C@H](C)CC[C@@H]1[C@@]24OO3", "note": "(stereo partly shown) [Artemisinin dimer succinate, reference compound]", "values": [{"measurement": "IC50", "setting": "MCF-10A", "value": 21, "unit": "µM"}, {"measurement": "times more potent than artemisinin monomers such as artesunate", "setting": "NCI 60 cell lines", "value": "up to 500 times"}, {"measurement": "IC50", "setting": "MDA-MB-231 cells; MTT, 48 hr incubation", "value": 0.24, "unit": "µM"}, {"measurement": "Selectivity MDA MB 231", "setting": "MDA-MB-231 cells", "value": 88}, {"measurement": "IC50", "setting": "BT474 cells; MTT, 48 hr incubation", "value": 0.1, "unit": "µM"}, {"measurement": "Selectivity BT474", "setting": "BT474 cells", "value": 210}]}
{"compound": "C[C@H]1[C@H](OC(=O)CCC(=O)O)O[C@@H]2O[C@@]3(C)CC[C@H]4[C@H](C)CC[C@@H]1[C@@]24OO3", "note": "[Artesunate, reference compound]", "values": [{"measurement": "IC50", "setting": "MCF-10A; Homo sapiens, MCF-10A", "value": 21, "unit": "µM"}, {"measurement": "IC50", "setting": "MDA-MB-231 cells; Homo sapiens, MDA-MB-231, 48 h", "value": 46, "unit": "µM"}, {"measurement": "Selectivity MDA MB 231", "setting": "MDA-MB-231 cells", "value": 0.46}, {"measurement": "IC50", "setting": "BT474 cells; Homo sapiens, BT-474, 48 h", "value": 7.8, "unit": "µM"}, {"measurement": "Selectivity BT474", "setting": "BT474 cells", "value": 2.7}]}
{"compound": "COC(=O)CNC(=O)C(CC[C@H]1O[C@@H]2OC3(C)CCC4[C@H](C)CCC([C@H]1C)[C@]42OO3)N(CCC[C@H]1O[C@@H]2OC3(C)CCC4[C@H](C)CCC([C@H]1C)[C@]42OO3)C(=O)C(F)(F)F", "note": "(stereo partly shown) [Compound 6a]", "values": [{"measurement": "IC50", "setting": "MCF-10A; Homo sapiens, MCF-10A", "value": 4.6, "unit": "µM"}, {"measurement": "IC50", "setting": "MDA-MB-231 cells; [2]", "value": 19, "unit": "µM"}, {"measurement": "Selectivity MDA MB 231", "setting": "MDA-MB-231 cells", "value": 0.24}, {"measurement": "IC50", "setting": "BT474 cells; [3]", "value": 6.6, "unit": "µM"}, {"measurement": "Selectivity BT474", "setting": "BT474 cells", "value": 0.70}]}
{"compound": "COC(=O)CNC(=O)C(CC[C@H]1O[C@@H]2OC3(C)CCC4[C@H](C)CCC([C@H]1C)[C@]42OO3)N(CCC[C@H]1O[C@@H]2OC3(C)CCC4[C@H](C)CCC([C@H]1C)[C@]42OO3)C(=O)c1ccccc1", "note": "(stereo partly shown) [Compound 6b]", "values": [{"measurement": "IC50", "setting": "MCF-10A; Homo sapiens, MCF-10A", "value": 5, "unit": "µM"}, {"measurement": "IC50", "setting": "MDA-MB-231 cells; [2]", "value": 11, "unit": "µM"}, {"measurement": "Selectivity MDA MB 231", "setting": "MDA-MB-231 cells", "value": 0.45}, {"measurement": "IC50", "setting": "BT474 cells; [3]", "value": 0.79, "unit": "µM"}, {"measurement": "Selectivity BT474", "setting": "BT474 cells", "value": 6.3}]}
{"compound": "COC(=O)CNC(=O)C(CC[C@H]1O[C@@H]2OC3(C)CCC4[C@H](C)CCC([C@H]1C)[C@]42OO3)N(CCC[C@H]1O[C@@H]2OC3(C)CCC4[C@H](C)CCC([C@H]1C)[C@]42OO3)C(=O)c1cccc(OC)c1OC", "note": "(stereo partly shown) [Compound 6c]", "values": [{"measurement": "IC50", "setting": "MCF-10A; Homo sapiens, MCF-10A", "value": 5.7, "unit": "µM"}, {"measurement": "IC50", "setting": "MDA-MB-231 cells; [2]", "value": 12, "unit": "µM"}, {"measurement": "Selectivity MDA MB 231", "setting": "MDA-MB-231 cells", "value": 0.48}, {"measurement": "IC50", "setting": "BT474 cells; [3]", "value": 5.8, "unit": "µM"}, {"measurement": "Selectivity BT474", "setting": "BT474 cells", "value": 0.98}]}
{"compound": "COC(=O)CNC(=O)C(CC[C@H]1O[C@@H]2OC3(C)CCC4[C@H](C)CCC([C@H]1C)[C@]42OO3)N(CCC[C@H]1O[C@@H]2OC3(C)CCC4[C@H](C)CCC([C@H]1C)[C@]42OO3)C(=O)c1ccc(N(C)C)cc1", "note": "(stereo partly shown) [Compound 6d]", "values": [{"measurement": "IC50", "setting": "MCF-10A; Homo sapiens, MCF-10A", "value": 15, "unit": "µM"}, {"measurement": "IC50", "setting": "MDA-MB-231 cells; [2]", "value": 12, "unit": "µM"}, {"measurement": "Selectivity MDA MB 231", "setting": "MDA-MB-231 cells", "value": 1.3}, {"measurement": "IC50", "setting": "BT474 cells; [3]", "value": 0.88, "unit": "µM"}, {"measurement": "Selectivity BT474", "setting": "BT474 cells", "value": 17}]}
{"compound": "COC(=O)CNC(=O)C(CC[C@H]1O[C@@H]2OC3(C)CCC4[C@H](C)CCC([C@H]1C)[C@]42OO3)N(CCC[C@H]1O[C@@H]2OC3(C)CCC4[C@H](C)CCC([C@H]1C)[C@]42OO3)C(=O)c1cnccn1", "note": "(stereo partly shown) [Compound 6e]", "values": [{"measurement": "IC50", "setting": "MCF-10A; Homo sapiens, MCF-10A", "value": 25, "unit": "µM"}, {"measurement": "IC50", "setting": "MDA-MB-231 cells; [2]", "value": 26, "unit": "µM"}, {"measurement": "Selectivity MDA MB 231", "setting": "MDA-MB-231 cells", "value": 0.96}, {"measurement": "IC50", "setting": "BT474 cells; [3]", "value": 1.7, "unit": "µM"}, {"measurement": "Selectivity BT474", "setting": "BT474 cells", "value": 15}]}
{"compound": "COC(=O)CNC(=O)C(CC[C@H]1O[C@@H]2OC3(C)CCC4[C@H](C)CCC([C@H]1C)[C@]42OO3)N(CCC[C@H]1O[C@@H]2OC3(C)CCC4[C@H](C)CCC([C@H]1C)[C@]42OO3)c1ccc([N+](=O)[O-])cc1", "note": "(stereo partly shown) [Compound 6f]", "values": [{"measurement": "IC50", "setting": "MCF-10A; Homo sapiens, MCF-10A", "value": 47, "unit": "µM"}, {"measurement": "IC50", "setting": "MDA-MB-231 cells; [2]", "value": 1.2, "unit": "µM"}, {"measurement": "times less potent than artemisinin dimer succinate", "setting": "MDA-MB-231 cells; MDA-MB-231", "value": 5, "unit": "times"}, {"measurement": "Selectivity MDA MB 231", "setting": "MDA-MB-231 cells", "value": 39}, {"measurement": "IC50", "setting": "BT474 cells; [3]", "value": 0.096, "unit": "µM"}, {"measurement": "Selectivity BT474", "setting": "BT474 cells", "value": 490}]}
{"compound": "COC(=O)CNC(=O)C(CC[C@H]1O[C@@H]2OC3(C)CCC4[C@H](C)CCC([C@H]1C)[C@]42OO3)N(C(=O)c1ccccc1)C(C)C", "note": "(stereo partly shown) [Compound 7]", "values": [{"measurement": "IC50", "setting": "MCF-10A; Homo sapiens, MCF-10A", "value": "> 100", "unit": "µM"}, {"measurement": "IC50", "setting": "MDA-MB-231 cells; [2]", "value": "> 100", "unit": "µM"}, {"measurement": "IC50", "setting": "BT474 cells; [3]", "value": "> 100", "unit": "µM"}]}
{"compound": "C[C@H]1[C@@H](O)O[C@@H]2O[C@@]3(C)CC[C@H]4[C@H](C)CC[C@@H]1[C@@]24OO3", "note": "[dihydroartemisinin]", "values": [{"measurement": "cytotoxicity", "setting": "[1]", "value": "negligible activity"}]}
